Assay results taken from patent US20170198006A1, “PRMT5 INHIBITORS AND USES THEREOF” (Epizyme, Inc., priority 2014, published 2017).

Molecular target: T1, PRMT5/MEP50 (Homo sapiens, UniProt O14744)
T1 construct: Flag-PRMT5; made in house; host or cells: Spodoptera frugiperda (SF9), baculovirus
Assay: PRMT5 Biochemical Assay (PRMT5/MEP50 enzyme assay on histone H4 peptide substrate, 3H-SAM Flashplate)
Settings: PRMT5 biochemical assay; read-out: Biochemical IC50
From the text: S-adenosylmethionine (SAM), S-adenosylhomocysteine (SAH), bicine, KCl, Tween20, dimethylsulfoxide (DMSO), bovine skin gelatin (BSG), and Tris(2-carboxyethyl)phosphine hydrochloride solution (TCEP) were purchased from Sigma-Aldrich at the highest level of purity possible. ^3H-SAM was purchase from American Radiolabeled Chemicals with a specific activity of 80 Ci/mmol. 384-well streptavidin Flashplates were purchased from PerkinElmer.
Peptide representative of human histone H4 residues 1-15 was synthesized with a C-terminal linker-affinity tag motif and a C-terminal amide cap by 21st Century Biochemicals.
The amplified genes were sublconed into pENTR/D/TEV (Life Technologies) and subsequently transferred by Gateway™ attL×attR recombination to pDEST8 baculvirus expression vector (Life Technologies).
Protein over-expression was accomplished by infecting exponentially growing Spodoptera frugiperda (SF9) cell culture at 1.2×10^6 cell/ml with a 5000 fold dilution of BIIC stock. Infections were carried out at 27° C. for 72 hours, harvested by centrifugation, and stored at −80° C. for purification.
Flag-PRMT5/6His-MeP50 was eluted with 300 mM Imidazole in the same buffer.
General Procedure for PRMT5/MEP50 Enzyme Assays on Peptide Substrates.
The assays were all performed in a buffer consisting of 20 mM Bicine (pH=7.6), 1 mM TCEP, 0.005% BSG, and 0.002% Tween20, prepared on the day of use. […] DMSO (1 ul) was added to Columns 11, 12, 23, 24, rows A-H for the maximum signal control and 1 ul of SAH, a known product and inhibitor of PRMT5/MEP50, was added to columns 11, 12, 23, 24, rows I-P for the minimum signal control. A cocktail (40 ul) containing the PRMT5/MEP50 enzyme and the peptide was added by Multidrop Combi (Thermo-Fisher). The compounds were allowed to incubate with PRMT5/MEP50 for 30 min at 25 degrees Celsius, then a cocktail (10 ul) containing ^3H-SAM was added to initiate the reaction (final volume=51 ul). […] The assays were stopped by the addition of non-radioactive SAM (10 ul) to a final concentration of 600 uM, which dilutes the ^3H-SAM to a level where its incorporation into the peptide substrate is no longer detectable. 50 ul of the reaction in the 384-well polypropylene plate was then transferred to a 384-well Flashplate and the biotinylated peptides were allowed to bind to the streptavidin surface for at least 1 hour before being washed three times with 0.1% Tween20 in a Biotek ELx405 plate washer. The plates were then read in a PerkinElmer TopCount plate reader to measure the quantity of ^3H-labeled peptide bound to the Flashplate surface, measured as disintegrations per minute (dpm) or alternatively, referred to as counts per minute (cpm).
Where dpm=disintegrations per minute, cmpd=signal in assay well, and min and max are the respective minimum and maximum signal controls.
Where top and bottom are the normally allowed to float, but may be fixed at 100 or 0 respectively in a 3-parameter fit. The Hill Coefficient normally allowed to float but may also be fixed at 1 in a 3-parameter fit. Y is the % inhibition and X is the compound concentration.

T1 sequence (O14744 with tags, fused parts or gaps): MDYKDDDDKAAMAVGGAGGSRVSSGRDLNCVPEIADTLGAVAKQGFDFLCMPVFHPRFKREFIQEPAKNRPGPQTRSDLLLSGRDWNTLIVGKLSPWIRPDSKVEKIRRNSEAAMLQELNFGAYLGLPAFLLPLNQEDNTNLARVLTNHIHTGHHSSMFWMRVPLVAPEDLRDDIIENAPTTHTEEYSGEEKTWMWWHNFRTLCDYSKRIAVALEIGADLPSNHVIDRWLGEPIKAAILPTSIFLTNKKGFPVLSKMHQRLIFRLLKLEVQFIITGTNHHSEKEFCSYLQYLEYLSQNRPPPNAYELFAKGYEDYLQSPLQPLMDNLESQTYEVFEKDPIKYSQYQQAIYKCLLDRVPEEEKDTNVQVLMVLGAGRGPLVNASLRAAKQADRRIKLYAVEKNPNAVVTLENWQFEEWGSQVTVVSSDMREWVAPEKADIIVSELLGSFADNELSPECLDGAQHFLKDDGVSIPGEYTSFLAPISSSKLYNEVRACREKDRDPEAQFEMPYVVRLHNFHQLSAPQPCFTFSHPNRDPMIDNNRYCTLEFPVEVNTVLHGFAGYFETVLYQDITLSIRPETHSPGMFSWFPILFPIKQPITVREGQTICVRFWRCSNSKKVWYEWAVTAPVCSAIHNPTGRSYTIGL
T1 sequence (Q9BQA1 with tags, fused parts or gaps partner limits assumed): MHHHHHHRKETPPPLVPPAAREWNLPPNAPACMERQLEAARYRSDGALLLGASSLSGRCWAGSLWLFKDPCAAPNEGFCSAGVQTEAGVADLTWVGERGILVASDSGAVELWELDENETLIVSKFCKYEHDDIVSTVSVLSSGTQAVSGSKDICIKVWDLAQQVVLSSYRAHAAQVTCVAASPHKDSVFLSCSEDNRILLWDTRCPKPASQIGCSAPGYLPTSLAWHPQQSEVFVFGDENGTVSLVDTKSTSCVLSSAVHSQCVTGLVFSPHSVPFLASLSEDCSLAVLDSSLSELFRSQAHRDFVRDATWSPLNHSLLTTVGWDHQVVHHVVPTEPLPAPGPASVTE

SMILES | IC50
NCCCN(CCN)C[C@H]1O[C@@H](n2cnc3c(N)ncnc32)[C@H](O)[C@@H]1O [Compound 30-1] | < 100 nM
Cc1ccc(C(=O)CC2NC(N3CCN(c4ccccc4F)CC3)=NC2=O)cc1 (stereo not drawn) [Compound 30-14] | 1000 to 10000 nM
NCCN(CCCC(=O)O)C[C@H]1O[C@@H](n2cnc3c(N)ncnc32)[C@H](O)[C@@H]1O [Compound 31-1] | < 100 nM
Cc1ccc(C(=O)CC2NC(N3CCN(c4cccc(F)c4)CC3)=NC2=O)cc1 (stereo not drawn) [Compound 31-14] | 1000 to 10000 nM
CN(CCC[C@@H](N)C(=O)O)C[C@H]1O[C@@H](n2cnc3c(N)ncnc32)[C@H](O)[C@@H]1O [Compound 32-1] | 101 to 1000 nM
Cc1ccc(C(=O)CC2NC(N3CCN(c4ccc(F)cc4)CC3)=NC2=O)cc1 (stereo not drawn) [Compound 32-14] | 1000 to 10000 nM
CC(CCCN(CCN)C[C@H]1O[C@@H](n2cnc3c(N)ncnc32)[C@H](O)[C@@H]1O)C(=O)O (stereo partly drawn) [Compound 33-1] | < 100 nM
Cc1ccc(C(=O)CC2NC(N3CCN(c4ccccn4)CC3)=NC2=O)cc1 (stereo not drawn) [Compound 33-14] | 1000 to 10000 nM
NCCN(CCCCC(=O)O)C[C@H]1O[C@@H](n2cnc3c(N)ncnc32)[C@H](O)[C@@H]1O [Compound 34-1] | < 100 nM
Cc1ccc(C(=O)CC2NC(N3CCN(c4ccncc4)CC3)=NC2=O)cc1 (stereo not drawn) [Compound 34-14] | 10000 to 50000 nM
NCCN(CCC[C@H](N)CO)C[C@H]1O[C@@H](n2cnc3c(N)ncnc32)[C@H](O)[C@@H]1O [Compound 35-1] | 101 to 1000 nM
Cc1ccc(C(=O)CC2NC(N3CCN(Cc4ccc(F)cc4)CC3)=NC2=O)cc1 (stereo not drawn) [Compound 35-14] | 1000 to 10000 nM
Cc1ccc(C(=O)CC2NC(N3Cc4ccccc4C3)=NC2=O)cc1 (stereo not drawn) [Compound 36-14] | 1000 to 10000 nM
CN(C)CCN(C)C[C@H]1O[C@@H](n2cnc3c(N)ncnc32)[C@H](O)[C@@H]1O [Compound 37-1] | 101 to 1000 nM
O=C(CC1NC(N2CCN(c3ccccc3)CC2)=NC1=O)c1ccccc1 (stereo not drawn) [Compound 37-14] | 101 to 1000 nM
CCN(CC)CCN(C)C[C@H]1O[C@@H](n2cnc3c(N)ncnc32)[C@H](O)[C@@H]1O [Compound 38-1] | 101 to 1000 nM
COc1ccc(C(=O)CC2NC(N3CCN(c4ccccc4)CC3)=NC2=O)cc1 (stereo not drawn) [Compound 38-14] | 1000 to 10000 nM
CN1CCC(N(C)CCN(C)C[C@H]2O[C@@H](n3cnc4c(N)ncnc43)[C@H](O)[C@@H]2O)C1 (stereo partly drawn) [Compound 39-1] | 101 to 1000 nM
COc1cccc(C(=O)CC2NC(N3CCN(c4ccccc4)CC3)=NC2=O)c1 (stereo not drawn) [Compound 39-14] | 101 to 1000 nM
CN(CCN1CCCN(Cc2ccccc2)CC1)C[C@H]1OC(n2cnc3c(N)ncnc32)[C@H](O)[C@@H]1O (stereo partly drawn) [Compound 40-1] | 101 to 1000 nM

SMILES | IC50
N#Cc1ccc(C(=O)CC2NC(N3CCN(c4ccccc4)CC3)=NC2=O)cc1 (stereo not drawn) [Compound 40-14] | 1000 to 10000 nM
CN(CCN1CCC(Oc2ccccn2)CC1)C[C@H]1OC(n2cnc3c(N)ncnc32)[C@H](O)[C@@H]1O (stereo partly drawn) [Compound 41-1] | 101 to 1000 nM
Cc1ccc(C(=O)CC2NC(N(C)CCc3ccccc3)=NC2=O)cc1 (stereo not drawn) [Compound 41-14] | 1000 to 10000 nM
CCCN(CCN(C)C[C@H]1O[C@@H](n2cnc3c(N)ncnc32)[C@H](O)[C@@H]1O)CC1CC1 [Compound 42-1] | 101 to 1000 nM
O=C(CC1NC(N2CCN(c3ccccc3)CC2)=NC1=O)c1ccc(Cl)cc1 (stereo not drawn) [Compound 42-14] | 101 to 1000 nM
CN(CCN1CCC(c2ccccc2)CC1)CC1OC(n2cnc3c(N)ncnc32)[C@H](O)[C@@H]1O (stereo partly drawn) [Compound 43-1] | 101 to 1000 nM
Cc1ccc(C(=O)CC2NC(N3CCN(c4cccnc4)CC3)=NC2=O)cc1 (stereo not drawn) [Compound 43-14] | 1000 to 10000 nM
CC1CCN(CCN(C)C[C@H]2O[C@@H](n3cnc4c(N)ncnc43)[C@H](O)[C@@H]2O)CC1 [Compound 44-1] | 101 to 1000 nM
Cc1ccc(C(=O)CC2NC(N3CCN(Cc4ccncc4)CC3)=NC2=O)cc1 (stereo not drawn) [Compound 44-14] | 1000 to 10000 nM
CN(CCN1CCN(CCc2ccccc2)CC1)C[C@H]1O[C@@H](n2cnc3c(N)ncnc32)[C@H](O)[C@@H]1O [Compound 45-1] | 101 to 1000 nM
Cc1ccc(C(=O)CC2NC(N(C)CCN(C)c3ccccc3)=NC2=O)cc1 (stereo not drawn) [Compound 45-14] | 10000 to 50000 nM
CN(CCO)CCN(C)C[C@H]1O[C@@H](n2cnc3c(N)ncnc32)[C@H](O)[C@@H]1O [Compound 46-1] | 101 to 1000 nM
N#Cc1cccc(C(=O)CC2NC(N3CCN(c4ccccc4)CC3)=NC2=O)c1 (stereo not drawn) [Compound 46-14] | 1000 to 10000 nM
CN(CCc1c[nH]cn1)CCN(C)C[C@H]1O[C@@H](n2cnc3c(N)ncnc32)[C@H](O)[C@@H]1O [Compound 47-1] | 101 to 1000 nM
O=C(CC1NC(N2CCN(c3ccccc3)CC2)=NC1=O)c1cccc(Cl)c1 (stereo not drawn) [Compound 47-14] | 101 to 1000 nM
COc1ccccc1C(=O)CC1NC(N2CCC(c3ccccc3)CC2)=NC1=O (stereo not drawn) [Compound 48-14] | 101 to 1000 nM
CN(CCN(CC[C@H](N)C(=O)OCc1ccccc1)C[C@H]1O[C@@H](n2cnc3c(N)ncnc32)[C@H](O)[C@@H]1O)C(=O)OCc1ccccc1 [Compound 49-1] | < 100 nM
O=C(CC1NC(N2CCN(c3ccccc3)CC2)=NC1=O)Nc1ccccc1Cl (stereo not drawn) [Compound 49-14] | 10000 to 50000 nM
CCN(CCc1ccc(Cl)cc1)CCN(C)C[C@H]1O[C@@H](n2cnc3c(N)ncnc32)[C@H](O)[C@@H]1O [Compound 50-1] | 101 to 1000 nM
O=C(CC1NC(N2CCN(c3ccccc3)CC2)=NC1=O)Nc1cccc(Cl)c1 (stereo not drawn) [Compound 50-14] | 1000 to 10000 nM

SMILES | IC50
CN(CCN(CCc1ccc(Cl)cc1)Cc1ccccc1)C[C@H]1O[C@@H](n2cnc3c(N)ncnc32)[C@H](O)[C@@H]1O [Compound 51-1] | 101 to 1000 nM
O=C(CC1NC(N2CCN(c3ccccc3)CC2)=NC1=O)Nc1cccc(Cl)c1Cl (stereo not drawn) [Compound 51-14] | 10000 to 50000 nM
CN(CCc1ccc(Cl)cc1)CCN(C)C[C@H]1O[C@@H](n2cnc3c(N)ncnc32)[C@H](O)[C@@H]1O [Compound 52-1] | 101 to 1000 nM
O=C(CC1NC(N2CCN(c3ccccc3)CC2)=NC1=O)NC1CCCCC1 (stereo not drawn) [Compound 52-14] | 10000 to 50000 nM
CN(CCNC1CCNCC1)C[C@H]1O[C@@H](n2cnc3c(N)ncnc32)[C@H](O)[C@@H]1O [Compound 53-1] | 101 to 1000 nM
O=C(CC1NC(N2CCN(c3ccccc3)CC2)=NC1=O)NCC1CCCCC1 (stereo not drawn) [Compound 53-14] | 1000 to 10000 nM
CN(CCNC1CCCCC1)C[C@H]1O[C@@H](n2cnc3c(N)ncnc32)[C@H](O)[C@@H]1O [Compound 54-1] | < 100 nM
COc1ccccc1C(O)CC1N=C(N2CCN(c3ccccc3)CC2)NC1=O (stereo not drawn) [Compound 54-14] | 10000 to 50000 nM
CN(CCNCCc1c[nH]c2ccccc12)C[C@H]1O[C@@H](n2cnc3c(N)ncnc32)[C@H](O)[C@@H]1O [Compound 55-1] | < 100 nM
COc1ccccc1C(=O)CC1NC(N2CCC(O)(c3ccccc3)CC2)=NC1=O (stereo not drawn) [Compound 55-14] | 101 to 1000 nM
CN(CCNc1ccccn1)C[C@H]1O[C@@H](n2cnc3c(N)ncnc32)[C@H](O)[C@@H]1O [Compound 56-1] | 101 to 1000 nM
O=C(CC1NC(N2CCc3ccccc3C2)=NC1=O)Nc1ccc(Cl)cc1 (stereo not drawn) [Compound 56-14] | 101 to 1000 nM
CN(CCNc1ccccc1)CC1O[C@@H](n2cnc3c(N)ncnc32)[C@H](O)[C@@H]1O (stereo partly drawn) [Compound 57-1] | < 100 nM
O=C(CC1NC(N2CCC(c3ccccc3)CC2)=NC1=O)Nc1ccc(Cl)cc1 (stereo not drawn) [Compound 57-14] | 1000 to 10000 nM
CC(CO)NCCN(C)C[C@H]1O[C@@H](n2cnc3c(N)ncnc32)[C@H](O)[C@@H]1O (stereo partly drawn) [Compound 58-1] | < 100 nM
O=C(CC1NC(N2CCN(c3ccccc3)CC2)=NC1=O)Nc1ccc(Cl)cc1Cl (stereo not drawn) [Compound 58-14] | 101 to 1000 nM
COCCNCCN(C)C[C@H]1O[C@@H](n2cnc3c(N)ncnc32)[C@H](O)[C@@H]1O [Compound 59-1] | 101 to 1000 nM
O=C(CC1NC(N2CCN(c3ccccc3)CC2)=NC1=O)Nc1ccc(Cl)c(Cl)c1 (stereo not drawn) [Compound 59-14] | 101 to 1000 nM
CN(CCNCCc1ccccc1Cl)C[C@H]1O[C@@H](n2cnc3c(N)ncnc32)[C@H](O)[C@@H]1O [Compound 60-1] | < 100 nM
COc1ccccc1NC(=O)CC1NC(N2CCN(c3ccccc3)CC2)=NC1=O (stereo not drawn) [Compound 60-14] | 10000 to 50000 nM
